Assay results published in patent publication US4861878A, “1H-pyrido-(2,3-b) (1,4)-thiazines” (Bayer Aktiengesellschaft, priority 1985, dated 1989).

How the values were obtained:
[1] = target: T1, lipoxygenase (Rattus norvegicus, UniProt P12527); test: LTB4 release from rat polymorphonuclear leucocytes (PMNL) after calcium ionophore A 23187, by HPLC (lipoxygenase inhibition); assay type: cell-based, rat (Wistar)
T1 construct: Polymorphonuclear leucocytes from rats (PMNL) were obtained from the peritoneal space in Wistar rats; endogenous in cells; host or cells: peritoneal polymorphonuclear leucocytes of Wistar rats (elicited with sodium caseinate)
T1 sequence (P12527 1-673): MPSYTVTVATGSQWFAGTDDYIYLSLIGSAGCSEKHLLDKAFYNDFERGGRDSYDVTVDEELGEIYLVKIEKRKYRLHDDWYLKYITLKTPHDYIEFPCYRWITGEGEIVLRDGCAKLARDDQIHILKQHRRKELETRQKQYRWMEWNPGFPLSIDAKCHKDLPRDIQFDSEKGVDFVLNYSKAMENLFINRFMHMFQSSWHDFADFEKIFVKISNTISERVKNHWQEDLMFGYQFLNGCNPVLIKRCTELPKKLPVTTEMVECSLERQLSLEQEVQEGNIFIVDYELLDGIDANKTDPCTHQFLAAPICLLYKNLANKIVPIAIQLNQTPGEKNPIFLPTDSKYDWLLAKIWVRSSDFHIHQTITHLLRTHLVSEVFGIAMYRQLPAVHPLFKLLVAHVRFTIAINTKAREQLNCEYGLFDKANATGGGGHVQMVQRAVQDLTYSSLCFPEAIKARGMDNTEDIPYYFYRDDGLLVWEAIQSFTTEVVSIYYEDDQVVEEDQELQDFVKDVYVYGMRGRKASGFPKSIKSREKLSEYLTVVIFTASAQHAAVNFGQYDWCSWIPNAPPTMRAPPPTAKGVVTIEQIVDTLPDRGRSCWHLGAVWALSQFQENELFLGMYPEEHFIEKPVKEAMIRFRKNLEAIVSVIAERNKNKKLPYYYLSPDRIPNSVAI
Description: The release of LTB4 on polymorphonuclear granulocytes after addition of substances and calcium ionophor was determined by means of HPLC as a measure of the lipoxygenase inhibition.
The combined ether phases were washed with 4 ml of water (double distilled), dried while gassing with nitrogen and taken up in 80 μl of methanol.
20 μl of each of the samples thus prepared were applied to a pre-packed column (Nucleosil, type 7.5 C 18M 4×25 mm) and chromatographed at a flow rate of 1 ml/min (Kontron pump system 600), methanol, H2 O and acetic acid (75:25:0.01) being used as the mobile phase. Detection was at 280 nm (Uvicon 720 LC). The formation of the metabolite was quantified with the aid of the internal standard PG B2 as a quotient of the area integrals (Shimadzu C-R1B) of LTB4 to PGB2 and an inhibition was determined as a percentage of the controls.

[2] = test system: leucocyte migration; test: Inhibition of leucocyte migration, small sponge impregnated with active compound under the skin on the backs of rats; assay type: in vivo; conditions: rat, local, 10 mg/rat, impregnated sponge under skin of back
From the text: The 1H-pyrido-[2,3-b][1,4]-thiazines according to the invention also have an in vivo action.
The action of a 1H-pyrido-[2,3-b][1,4]-thiazine after local administration by insertion of a small sponge impregnated with active compound under the skin on the backs of rats may be mentioned as examples.

| Structure (SMILES) | IC50 [1] [nM] | Inhibition of Leucocyte migration (control = 0%) [2] [%] | Inhibition of leukotriene B4 biosynthesis, % inhibition ([1]; at 1·10^-5 (M/1), rat PMNL) [%] |
| --- | --- | --- | --- |
| CCCCOC(=O)C1=CNc2cccnc2S1 [Example 4] | 55 | – | – |
| CCOC(=O)C1=CNc2cccnc2S1 [Example 1, 3-Ethoxycarbonyl-1H-pyrido[2,3-b][1,4]-thiazine] | 460 | 50 | – |
| CCOC(=O)C1=CN(CC#N)c2cccnc2S1 [Example 19] | 2600 | – | – |
| COC(=O)C1=CNc2cccnc2S1 [Example 2] | 5000 | – | – |
| O=C1CCCC2=C1Sc1ncccc1N2 | – | – | 42 |
